According to article PMC11510499, “Mechanism-Based Allylic Carbasugar Chlorides That Form Covalent Intermediates with α- and β-Galactosidases” (Molecules, 2024):
Entries after “also recorded” stand apart in the source; their conditions may differ.

Tests used:
Type in all cases: biochemical
[1] = molecular target: T1, Human α-galactosidase (GalA) (Homo sapiens, UniProt P06280); experiment: Reactivation kinetics of covalently inhibited Human α-galactosidase (GalA); settings: 50 mM sodium citrate buffer, pH 4.6, 50 mM NaCl, 0.1% BSA, 37 °C; for t1/2: half-life of covalent intermediate
T1 construct: purchased Biotechne
T1 sequence (P06280 32-429): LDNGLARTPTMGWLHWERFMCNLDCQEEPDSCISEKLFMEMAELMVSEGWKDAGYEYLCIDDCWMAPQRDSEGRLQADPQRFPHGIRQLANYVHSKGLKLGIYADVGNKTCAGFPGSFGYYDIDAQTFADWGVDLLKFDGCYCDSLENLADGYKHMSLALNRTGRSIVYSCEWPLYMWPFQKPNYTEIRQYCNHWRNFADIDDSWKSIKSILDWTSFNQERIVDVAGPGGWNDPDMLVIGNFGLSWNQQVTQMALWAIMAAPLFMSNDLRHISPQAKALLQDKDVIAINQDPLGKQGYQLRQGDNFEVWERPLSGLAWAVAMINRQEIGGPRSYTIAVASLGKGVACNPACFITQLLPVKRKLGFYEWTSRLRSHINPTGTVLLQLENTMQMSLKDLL
Procedure: (§1) In summary, all inhibitors that covalently label either Human α-galactosidase or Aspergillus oryzae β-galactosidase display linear second-order kinetics where the slopes of the graphs give kinact/Ki (Table 1 and Table 2). That is, no saturation binding is noted even up to inhibitor concentrations of 8 mM, i.e., Ki » 8 mM. […] As a result, reactivation kinetics were monitored by diluting a quantity of inhibited enzyme into a buffered solution containing substrate. Shown in Figure 3 are the measured gradients (time intervals of 100 s) from the absorbance versus time plot of the reactivation for GH35 A. oryzae β-galactosidase with 1–3.
(§2) We monitored a concentrated solution of enzyme and inhibitor at 37 °C until the measured enzyme activity dropped to under 5% of that initially measured. We then added a small volume (typically 0.5 µL) to a pre-equilibrated reactivation buffer containing substrate (200 µL). We then continuously monitored the release of either the chromophore or the fluorophore. We then calculated signal versus time gradient slope at uniform time intervals to give reaction rates. We fit these computed values to a standard first-order rate equation (Prism 10.0) to give us the first order reactivation rate constant (kreact).

[2] = molecular target: T2, A. oryzae GH35 β-galactosidase (LacA) (Aspergillus oryzae, UniProt Q2UCU3); experiment: Reactivation kinetics of covalently inhibited A. oryzae β-galactosidase (LacA); settings: 50 mM sodium acetate buffer, pH 4.5, 0.1% BSA, 37 °C; for t1/2: half-life of covalent intermediate
T2 construct: purchased Sigma
T2 sequence (Q2UCU3 19-1005): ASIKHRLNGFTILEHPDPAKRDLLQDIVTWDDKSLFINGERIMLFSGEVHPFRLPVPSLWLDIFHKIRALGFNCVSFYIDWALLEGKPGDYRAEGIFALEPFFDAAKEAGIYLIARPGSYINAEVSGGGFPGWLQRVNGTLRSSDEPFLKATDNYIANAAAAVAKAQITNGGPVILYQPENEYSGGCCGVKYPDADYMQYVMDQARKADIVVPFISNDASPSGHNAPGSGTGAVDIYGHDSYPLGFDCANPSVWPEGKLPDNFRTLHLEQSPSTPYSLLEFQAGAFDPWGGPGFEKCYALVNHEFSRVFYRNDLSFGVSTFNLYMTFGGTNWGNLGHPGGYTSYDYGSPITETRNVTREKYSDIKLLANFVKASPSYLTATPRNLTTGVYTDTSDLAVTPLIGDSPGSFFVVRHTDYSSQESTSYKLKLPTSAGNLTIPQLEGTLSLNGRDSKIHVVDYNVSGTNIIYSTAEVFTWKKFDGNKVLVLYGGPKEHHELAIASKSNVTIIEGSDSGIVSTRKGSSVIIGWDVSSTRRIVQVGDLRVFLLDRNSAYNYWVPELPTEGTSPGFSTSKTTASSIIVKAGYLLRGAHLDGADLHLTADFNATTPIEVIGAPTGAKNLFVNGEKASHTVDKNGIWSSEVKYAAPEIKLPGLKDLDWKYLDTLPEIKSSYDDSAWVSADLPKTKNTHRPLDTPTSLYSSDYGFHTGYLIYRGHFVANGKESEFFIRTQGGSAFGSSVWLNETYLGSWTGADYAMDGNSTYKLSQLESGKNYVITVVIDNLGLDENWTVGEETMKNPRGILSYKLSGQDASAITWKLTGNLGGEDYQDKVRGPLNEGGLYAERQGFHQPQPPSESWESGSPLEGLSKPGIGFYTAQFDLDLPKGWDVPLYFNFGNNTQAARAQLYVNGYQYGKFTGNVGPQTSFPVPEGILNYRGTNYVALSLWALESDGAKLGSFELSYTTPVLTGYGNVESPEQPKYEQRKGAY
Procedure: as §1, §2

[3] = molecular target: T2, A. oryzae GH35 β-galactosidase (LacA); experiment: Covalent inhibition (inactivation) kinetics of A. oryzae β-galactosidase (LacA); settings: for kinact/Ki: 50 mM sodium acetate buffer
Procedure: (§3) Recombinant Human α-galactosidase (GalA) was purchased from Biotechne, and Aspergillus oryzae β-galactosidase was purchased from Sigma. We calculated the various rate constants for covalent inhibition of these two glycosidases by compounds 1 to 4 by use of either a classical jump dilution assay or a continuous assay protocol.
(§4) First, we incubated the enzyme using at least five different inhibitor concentrations in the appropriate buffer. We then ‘jump-diluted’ the inactivation mixture by adding 4 µL aliquots of the inhibition mixture to a pre-equilibrated 196 µL buffered solution containing substrate (see assay conditions section). We monitored the enzymatic activity using either UV-vis (Cary300, Agilent Technologies, Santa Clara, CA, United States) or fluorescence (Cary Eclipse). All rate constants for inhibition (kobs) were calculated using a standard nonlinear least squares fit of enzyme activity (%) versus time data to a first-order equation. We then used a standard Michaelis–Menten expression to evaluated kinact and kinact/Ki for covalent inhibition using a standard nonlinear least squares fitting routine. However, in cases where we noted insufficient saturation of inhibitor, we used a standard linear fit of the kobs versus covalent inhibitor concentration to obtain the inhibition rate constant kinact/Ki.
(§5) Second, we also used a continuous assay protocol in which we added the enzyme to a pre-equilibrated buffered mixture containing substrate and inhibitor. We monitored the reaction continuously until we noted that the rate of fluorophore (or chromophore) became linear following the initial first-order process. We repeated these experiments for at least five other inhibitor concentrations. We calculated the apparent rate constant (kapp) at every inhibitor concentration by fitting the progress curves to equation 1 (for UV-Vis or a similar equation for fluorescence data), where Vi is the initial velocity at t = 0 and Vf is the velocity at t = ∞ [31]. (1) Abs=νft+νi−νf/kapp1−e^−kappt
(§6) The kapp values versus inhibitor concentrations were then fit to a modified Michaelis–Menten expression for competitive inhibition (equation 2), which gives the second-order inhibition parameter kinact/Ki only. (2) kapp=kreact+kinact/KiI/1+S/Km
(§7) The release of 4-nitrophenol was monitored at 400 nm, while the release of 4-methylumbelliferone was monitored at 365 nm excitation and 445 emission wavelengths. All rate constants were determined by fitting experimental data on the computer program GraphPad Prism 10.0 (GraphPad Software, Boston, MA, USA).

[4] = molecular target: T1, Human α-galactosidase (GalA); experiment: Covalent inhibition (inactivation) kinetics of Human α-galactosidase (GalA); settings: for covalent inhibition observed: at 5 mM inhibitor, NIO = No inhibition observed, pH 4.6, 37 °C
Procedure: as §3, §4, §5, §6, §7

Row | SMILES | kreact [1] | t1/2 [1] | kreact [2] | t1/2 [2] | kinact/Ki ([3]; pH 4.5, 0.1% BSA, 37 °C) | kinact/Ki ([4]; 50 mM sodium citrate buffer, pH 4.6, 50 mM NaCl, 0.1% BSA, 37 °C) | kinact/KI ([3]; pH 4.5, 50 mM sodium acetate buffer, pH 4.5, 0.1% BSA, 37 °C) | covalent inhibition observed [4] | covalent inhibition observed ([3]; at 1 mM inhibitor, NIO = No inhibition observed, pH 4.5, 37 °C) | kinact/KI ([4]; pH 4.6, 50 mM sodium citrate buffer, pH 4.6, 50 mM NaCl, 0.1% BSA, 37 °C)
1 | OC1C=CC(Cl)C(O)C1O (stereo not drawn) [Compound 3] | (4.9 ± 0.2) × 10^−4 s^−1 | 23.4 ± 0.9 min | (2.6 ± 0.2) × 10^−3 s^−1 | 4.5 ± 0.3 min | 2.7 ± 0.04 M⁻¹ s⁻¹ | 0.18 ± 0.01 M⁻¹ s⁻¹ | – | – | – | –
2 | O[C@@H]1[C@@H](O)[C@@H](O)C=C[C@H]1Cl [Compound 1, 5,5a-didehydro-5a-carba-β-L-arabino-hexopyranosyl chloride] | – | – | (2.5 ± 0.1) × 10^−3 s^−1 | 4.6 ± 0.2 min | – | – | 17 ± 0.5 M⁻¹ s⁻¹ | no measurable covalent inhibition; also recorded: NIO ^a at 5 mM | – | –
3 | O[C@@H]1[C@H](O)[C@@H](O)C=C[C@H]1Cl [Compound 4] | – | – | – | – | – | – | – | no measurable covalent inhibition; also recorded: NIO ^a at 5 mM | no activity; also recorded: NIO ^a at 1 mM | –
4 | OC1C=CC(Cl)C(O)C1O (stereo not drawn) [Compound 2] | (5.1 ± 0.2) × 10^−4 s^−1 | 22.5 ± 0.7 min | (2.6 ± 0.2) × 10^−3 s^−1 | 4.5 ± 0.3 min | 47 ± 2 M⁻¹ s⁻¹ | – | – | – | – | 0.25 ± 0.004 M⁻¹ s⁻¹
